The series can be described thus: method code SF-HPLC, from DOI: 10.1002/qsar.19910100205. Conditions: pH 3.5.

On to `O=C1NC(=O)C(Cc2ccccc2)N1` (configuration not stated), for which the logD (in general, the decadic logarithm of the distribution of all forms, ionised or not, between an organic phase and buffer at a given pH) is 0.6.

For `O=C1CC(=O)C(c2ccccc2)O1` (configuration not stated), the logD stood at 1.07.

Regarding `O=C1NC(=O)C(Cc2ccccc2)O1` (configuration not stated), the logD was found to be 1.2. This logD and that of the compound before are within 0.2 log units of each other.

The compound `O=C1NC(=O)C(c2ccccc2)O1` (configuration not stated) had a logD of 1.09.

Compound `CC1(COc2ccc(CC3SC(=O)NC3=O)cc2)CCCCC1` (configuration not stated) came in with a logD of 3.57.

For `O=C1NC(=O)N(Cc2ccccc2)C1=O`, the logD was found to be 1.19.

`O=c1[nH]c(=O)n(-c2ccccc2)o1`: the logD worked out at 1.68.

In turn, `O=C1NC(=O)N(c2ccccc2)C1=O` showed a logD of 0.6.

Take `O=C1CC(=O)C(c2ccccc2)N1` (configuration not stated): the logD amounted to 0.48.

In the case of `O=C1CC(=O)N(c2ccccc2)O1`, the logD came out at 0.54. This logD and that of the compound before are within 0.2 log units of each other.

In turn, `O=C1CS(=O)(=O)C(c2ccccc2)N1` (configuration not stated) returned a pH-dependent lipophilicity (logD) of 0.18.

Regarding `O=C1CN(Cc2ccccc2)C(=O)N1`, the logD came to 0.76.

For the compound `O=C1CN(c2ccccc2)C(=O)N1`, the logD amounted to 0.83.

For `O=C1NC(=O)C(Cc2ccccc2)S1` (configuration not stated), the pH-dependent lipophilicity (logD) is 1.98.

With `O=C1CC(=O)N(Cc2ccccc2)C1`, the logD was found to be 0.76.

In the case of `NS(=O)(=O)NC(=O)Cc1ccccc1`, the pH-dependent lipophilicity (logD) amounted to 0.31.

Turning to `O=C1CNC(=O)N1c1ccccc1`, the logD worked out at 0.04.

The values are drawn from the SangsterLogP compilation.
